Data: US20220251096A1, “7,8-DIHYDRO-4H-PYRAZOLO[4,3-c]AZEPINE-6-ONE COMPOUNDS” (Eli Lilly and Company, priority 2019, published 2022)
“And” between values parts separate entries of the source, which are not always exact repeats. Identical values can stand only once.

What was measured:
[1] = tested on: 22Rv1 prostate cancer cells; test: Cell proliferation assay in 22Rv1; format: cell-based; settings: 22Rv1, 7 days
Method: The purpose of the following cell proliferation assay is to detect whether the compound of Example 2 and combinations thereof have an effect on cell proliferation.
22Rv1 (purchased from ATCC CRL-2505) cells are seeded at a density of 1,000 cells per well in RMPI 10% FBS (20 μL volume) into a clear bottom 384-well cell culture plate. The plate is incubated at 37° C. and 5% CO2. The cells are dosed the following day with the compound of Example 2 and the compound of Example 2 in combination with the known anti-cancer therapeutics found in the table below. An Echo 555 acoustic dispenser is used to prepare serial dilutions (1:3) of the compound of Example 2, and combinations thereof, in concentrations ranging from 60 μM to 0.003 μM. The cells are then dosed by addition of 5 μL from the serial dilution plate to the cell plate, producing a final DMSO concentration of 0.2% with a final concentration dose ranging from 20 μM to 0.001 μM for the compound of Example 2 and combinations thereof.
Media containing 0.2% DMSO is used for the maximum point and 2 μM staurosporine in the growth media containing 0.2% DMSO is used for the minimum point. After dosing with the compound of Example 2 and combinations thereof, the cell plates are incubated at 37° C. and 5% CO2. Seven days after test compound addition, plates are removed from the incubator and cold EtOH (96%, 65 μL) is added to each well. After 30 minutes, the media is removed and RNase (20 μL, 50 μg/mL) (Sigma) and a 1:1000 propidium iodide dilution in PBS are added to each well. The plates are sealed and incubated for 1 hour at room temperature and preserved from light. Plates are then scanned with ACUMEN EXPLORER™ [Laser-scanning fluorescence microplate cytometer manufactured by TTP LABTECH LTD]. The number of 22Rv1 cells is evaluated through an estimated number of cells, calculated through the area parameter (ratio of total area of the total cells population), a designated range of peak intensity of FL-3 (PI), and the mean area of the single cell population defined by perimeter. Data is then processed through an NGR screening tool. Data is analyzed using a 4-parameter nonlinear logistic equation (four-parameter logistic concentration-response curve): Y=bot+[(top−bot)/1+(x/IC50)slope] where Y=% inhibition, X=concentration yielding y % inhibition, “bot”=minimum value of y attained by curve, “top”=maximum value of y attained by curve, and “slope”=steepness of curve at IC50. % Inh=[(median Max−x/median Max−median Min)]·100.

SW780 = test: Cell growth inhibition assay, SW780; format: cell-based; settings: Homo sapiens, 168 h; SW780, 7 days
Method: (§1) Tumor cell lines are plated onto 96-well, black wall poly-D-lysine plates (Corning #354640), and incubated at 37° C., 5% CO2 for 18-24 hours. Compound was added at 1:3 dilutions in DMSO and cells were incubated at 37° C., 5% CO2 for 7 days. For adherent cell lines, cells were fixed and stained with propidium iodide and scanned on Acumen (channel 3 setting). For suspension cell lines, cell growth was monitored using Cell Titer-Glo reagent.

NCI-H1048 = test: Cell growth inhibition assay, NCI-H1048; format: cell-based; settings: Homo sapiens, 168 h; NCI-H1048, 7 days
Method: as §1

NCI-H211 = test: Cell growth inhibition assay, NCI-H211; format: cell-based; settings: Homo sapiens, 168 h; NCI-H211, 7 days
Method: as §1

SKNO-1 (AML1-ETO) = test: Cell growth inhibition assay, SKNO-1 (AML1-ETO); format: cell-based; settings: 168 h, 7 days
Method: as §1

KG-1a = test: Cell growth inhibition assay, KG-1a; format: cell-based; settings: Homo sapiens, 168 h, 7 days
Method: as §1

OCI-AML3 = test: Cell growth inhibition assay, OCI-AML3; format: cell-based; settings: Homo sapiens, OCI-AML-3, 168 h; OCI-AML3, 7 days
Method: as §1

HL-60 = test: Cell growth inhibition assay, HL-60; format: cell-based; settings: Homo sapiens, 168 h; HL-60, 7 days
Method: as §1

BRD4 (BD1, BD2) = biological target: T1, BRD4 (BD1, BD2) (Homo sapiens, UniProt O60885); test: BromoKdELECT platform assay, BRD4 (BD1, BD2); format: binding; settings: 11 points dose-response, mean from a duplicate experiment
T1 construct: BRD4 (Bromodomain 1 (BD1) and Bromodomain 2 (BD2)); purchased DiscoverX (BromoKdELECT service)
Text: (§2) The purpose of this assay is to evaluate the in vitro target engagement and selectivity (https://www.discoverx.com/services/drug-discovery-development-services/epigenetic-profiling/bromoscan-epigenetic-profiling/bromokdelect). Assay measurement is based on the amount of bromodomain captured in test and control samples by using quantitative PCR technology that detects the DNA label associated to bromodomain. Compounds that bind the bromodomain active site prevents its binding to the immobilized ligand and will reduce the amount of bromodomain captured on the solid support. […] Thus, compound activity is monitored by measuring the amount of bromodomain captured in test versus control samples by using qPCR. Binding affinity for test compound-bromodomain interactions are calculated by measuring the amount of bromodomain captured on the solid support as a function of the test compound concentration.
(§3) Binding affinity (Kd) of the compounds of Examples 1 and 2 towards CREBBP, EP300 and BRD4 (Bromodomain 1 (BD1) and Bromodomain 2 (BD2)) are determined in an 11 points dose-response study (See Table 5). Data is represented as a mean from a duplicate experiment.

BRD4 (BD2) = biological target: T2, BRD4 (BD2) (Homo sapiens, UniProt O60885); test: BromoKdELECT platform assay, BRD4 (BD2); format: binding; settings: 11 points dose-response, mean from a duplicate experiment
T2 construct: BRD4 (Bromodomain 1 (BD1) and Bromodomain 2 (BD2)); purchased DiscoverX (BromoKdELECT service)
Text: as §2, §3

EP300 = biological target: T3, EP300 (Homo sapiens, UniProt Q09472); test: BromoKdELECT platform assay, EP300; format: binding; parameters: purchased DiscoverX (BromoKdELECT service); settings: 11 points dose-response, mean from a duplicate experiment
T3 sequence (Q09472 1049-1156 limits assumed): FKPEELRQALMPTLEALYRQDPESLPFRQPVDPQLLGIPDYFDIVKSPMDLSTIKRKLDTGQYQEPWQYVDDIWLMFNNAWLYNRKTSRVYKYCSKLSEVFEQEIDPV
Text: as §2, §3

CREBBP = CREBBP (Homo sapiens, UniProt Q92793); test: BromoKdELECT platform assay, CREBBP; format: binding; parameters: purchased DiscoverX (BromoKdELECT service); settings: 11 points dose-response, mean from a duplicate experiment
Sequence of CREBBP (Q92793 1085-1192 limits assumed): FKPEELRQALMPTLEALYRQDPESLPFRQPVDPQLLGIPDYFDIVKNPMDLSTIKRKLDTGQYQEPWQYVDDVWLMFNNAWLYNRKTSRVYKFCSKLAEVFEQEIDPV
Text: as §2, §3

- IC50 (SW780): 4 nM
- IC50 (NCI-H1048): 18 nM
- IC50 (NCI-H211): 65 nM
- IC50 (SKNO-1 (AML1-ETO)): 18 nM
- IC50 (OCI-AML3): 226 nM
- IC50 (HL-60): 328 nM
- Kd (BRD4 (BD1, BD2)): 7400 nM
- Kd (BRD4 (BD2)): 6800 nM
- Kd (EP300): 0.095 nM
- Kd (CREBBP): 0.325 nM
Structure (SMILES): CCNC(=O)c1ccc(-c2cc3cccc(-c4nn(C)c5c4CN(C)C(=O)CC5)c3cn2)cn1 [Example 2, 5-[8-(1,5-Dimethyl-6-oxo-7,8-dihydro-4H-pyrazolo[4,3-c]azepin-3-yl)-3-isoquinolyl]-N-ethyl-pyridine-2-carboxamide]
- Cell Proliferation % Inhibition ([1]; single agent at 120 nM, 0.12 µM): 9.62%
- Cell Proliferation % Inhibition ([1]; single agent at 370 nM, 0.37 µM): 18.68% and 31.53%
- inhibition at 0.12 µM ([1]; Homo sapiens, 22Rv1, 168 h, single agent at 120 nM): 17.4%
- inhibition at 0.37 µM ([1]; Homo sapiens, 22Rv1, 168 h, single agent at 370 nM): 35.4%
- inhibition at 0.74 µM ([1]; Homo sapiens, 22Rv1, 168 h, single agent at 740 nM): 12.2%
- inhibition at 2.2 µM ([1]; Homo sapiens, 22Rv1, 168 h, single agent at 2.2 μM): 19.3%
- inhibition at 3.3 µM ([1]; Homo sapiens, 22Rv1, 168 h, single agent at 3.3 μM): 46.3%
- IC50 (KG-1a): 2 nM
